In US10780090B2, “Heteroaryl compounds useful as inhibitors of SUMO activating enzyme” (Millennium Pharmaceuticals, Inc., priority 2014, dated 2020):

Molecular target: recombinant human SAE enzyme (Homo sapiens (Human), UniProt Q9UBT2)
Assay: SAE HTRF enzyme assay
Assay type: biochemical
Details: for inhibition at 0.111 µM: read-out: Percent Inhibition
Summary of the method: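 HTRF read-out using Eu-cryptate anti-Flag and allophycocyanin anti-GST antibodies, added with EDTA stop buffer and read after 2 h at 24 °C. The preceding reaction ran 105 min at 24 °C: 0.11 nM recombinant SAE, 0.5 μM ATP, Sumo-Flag, Ubc9-GST, pH 7.5. Values given as single-concentration inhibition or IC50.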

[1] = SAE inhibition at compound concentration 0.111 μM
[2] = SAE inhibition, class symbols, legend in nM

recombinant human SAE enzyme, sequence (Q9UBT2 whole entry): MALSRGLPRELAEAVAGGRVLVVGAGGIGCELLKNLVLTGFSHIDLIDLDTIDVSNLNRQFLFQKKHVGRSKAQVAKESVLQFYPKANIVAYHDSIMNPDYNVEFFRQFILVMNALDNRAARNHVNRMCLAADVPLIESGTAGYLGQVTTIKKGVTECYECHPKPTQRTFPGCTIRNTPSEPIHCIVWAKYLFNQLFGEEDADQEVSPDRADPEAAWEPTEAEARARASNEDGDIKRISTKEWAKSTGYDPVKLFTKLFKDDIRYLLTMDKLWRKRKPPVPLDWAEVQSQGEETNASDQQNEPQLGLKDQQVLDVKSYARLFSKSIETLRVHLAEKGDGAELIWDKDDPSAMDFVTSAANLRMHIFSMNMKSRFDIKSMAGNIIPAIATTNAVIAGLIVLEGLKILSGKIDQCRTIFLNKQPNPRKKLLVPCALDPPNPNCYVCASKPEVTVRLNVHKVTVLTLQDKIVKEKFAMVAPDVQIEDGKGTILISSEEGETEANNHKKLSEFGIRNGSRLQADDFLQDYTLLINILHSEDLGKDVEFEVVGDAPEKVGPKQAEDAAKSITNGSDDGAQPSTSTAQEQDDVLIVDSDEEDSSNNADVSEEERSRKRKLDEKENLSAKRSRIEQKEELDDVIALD
recombinant human SAE enzyme, sequence (Q9UBE0 whole entry partner): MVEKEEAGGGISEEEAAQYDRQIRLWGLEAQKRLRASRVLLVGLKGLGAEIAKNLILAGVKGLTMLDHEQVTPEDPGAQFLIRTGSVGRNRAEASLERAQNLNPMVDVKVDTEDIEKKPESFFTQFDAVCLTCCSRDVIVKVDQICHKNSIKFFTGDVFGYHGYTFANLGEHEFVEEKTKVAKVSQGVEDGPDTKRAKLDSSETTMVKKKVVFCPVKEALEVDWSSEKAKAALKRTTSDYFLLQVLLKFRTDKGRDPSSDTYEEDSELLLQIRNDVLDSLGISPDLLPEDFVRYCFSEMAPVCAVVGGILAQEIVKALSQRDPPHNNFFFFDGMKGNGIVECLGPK

Row | Structure (SMILES) | Percent Inhibition [1] | IC50 [2] | inhibition at 0.111 µM (Concentration 0.111 μM) | IC50 (class symbols A/B/C) | Percent Inhibition (Concentration 0.111 μM)
1 | NS(=O)(=O)OC[C@H]1C[C@@H](Nc2ncncc2C(=O)c2cc([C@@H]3OCCCc4ccc(Cl)cc43)cs2)C[C@@H]1O (single isomer, unassigned) [I-314b, [(1R,2S,4R)-4-{[5-({4-[(1R)-8-chloro-1,3,4,5-tetrahydro-2-benzoxepin-1-yl]-2-thienyl}carbonyl)pyrimidin-4-yl]amino}-2-hydroxycyclopentyl]methyl sulfamate or [(1R,2S,4R)-4-{[5-({4-[(1S)-8-chloro-1,3,4,5-tetrahydro-2-benzoxepin-1-yl]-2-thienyl}carbonyl)pyrimidin-4-yl]amino}-2-hydroxycyclopentyl]methyl sulfamate] | 98% | < 10 nM |  |  | 
2 | NS(=O)(=O)OC[C@H]1C[C@@H](Nc2ncncc2C(=O)c2cc(Cc3cccc(OC(F)F)c3)cs2)C[C@@H]1O [I-113, [(1R,2S,4R)-4-{[5-({4-[3-(difluoromethoxy)benzyl]-2-thienyl}carbonyl)pyrimidin-4-yl]amino}-2-hydroxycyclopentyl]methyl sulfamate] |  |  | 97% | < 10 nM | 
3 | CN1Cc2ccc(Cl)cc2[C@@H]1c1csc(C(=O)c2cncnc2N[C@@H]2C[C@H](COS(N)(=O)=O)[C@@H](O)C2)c1 (single isomer, unassigned) [I-265b, [(1R,2S,4R)-4-{[5-({4-[(1R)-6-chloro-2-methyl-2,3-dihydro-1H-isoindol-1-yl]-2-thienyl}carbonyl)pyrimidin-4-yl]amino}-2-hydroxycyclopentyl]methyl sulfamate or [(1R,2S,4R)-4-{[5-({4-[(1S)-6-chloro-2-methyl-2,3-dihydro-1H-isoindol-1-yl]-2-thienyl}carbonyl)pyrimidin-4-yl]amino}-2-hydroxycyclopentyl]methyl sulfamate] |  |  |  | 10 to 100 nM | 72
4 | NS(=O)(=O)OC[C@H]1C[C@@H](Nc2ncncc2C(=O)c2cc(CN3CCn4ccnc4C3)cs2)C[C@@H]1O [I-190, {(1R,2S,4R)-4-[(5-{[4-(5,6-dihydroimidazo[1,2-a]pyrazin-7(8H)-ylmethyl)-2-thienyl]carbonyl}pyrimidin-4-yl)amino]-2-hydroxycyclopentyl}methyl sulfamate] |  |  | 77% | 10 to 100 nM | 
5 | CC(C)(O)c1csc(C(=O)c2cncnc2N[C@@H]2C[C@H](COS(N)(=O)=O)[C@@H](O)C2)c1 [I-240, {(1R,2S,4R)-2-Hydroxy-4-[(5-{[4-(2-hydroxypropan-2-yl)-2-thienyl]carbonyl}pyrimidin-4-yl)amino]cyclopentyl}methyl sulfamate] |  |  | 19% | 100 to 1000 nM | 
6 | NS(=O)(=O)OC[C@H]1C[C@@H](Nc2ncncc2C(=O)c2cc(Cn3ccnc3)cs2)C[C@@H]1O [I-231, {(1R,2S,4R)-2-hydroxy-4-[(5-{[4-(1H-imidazol-1-ylmethyl)-2-thienyl]carbonyl}pyrimidin-4-yl)amino]cyclopentyl}methyl sulfamate] |  |  | 28% | 100 to 1000 nM | 
7 | NS(=O)(=O)OC[C@H]1C[C@@H](Nc2ncncc2C(=O)c2cc([C@@]3(c4ccccc4)CCCO3)cs2)C[C@@H]1O (mixture of isomers) [I-32, [(1R,2S,4R)-2-hydroxy-4-{[5-({4-[(2S)-2-phenyltetrahydrofuran-2-yl]-2-thienyl}carbonyl)pyrimidin-4-yl]amino}cyclopentyl]methyl sulfamate and [(1R,2S,4R)-2-hydroxy-4-{[5-({4-[(2R)-2-phenyltetrahydrofuran-2-yl]-2-thienyl}carbonyl)pyrimidin-4-yl]amino}cyclopentyl]methyl sulfamate] |  |  |  | < 10 nM | 98
8 | CN1CCc2ccc(Cl)cc2[C@H]1c1csc(C(=O)c2cncnc2N[C@@H]2C[C@H](COS(N)(=O)=O)[C@@H](O)C2)c1 (mixture of isomers) [I-307, [(1R,2S,4R)-4-{[5-({4-[(1R)-7-chloro-2-methyl-1,2,3,4-tetrahydroisoquinolin-1-yl]-2-thienyl}carbonyl)pyrimidin-4-yl]amino}-2-hydroxycyclopentyl]methyl sulfamate and [(1R,2S,4R)-4-{[5-({4-[(1S)-7-chloro-2-methyl-1,2,3,4-tetrahydroisoquinolin-1-yl]-2-thienyl}carbonyl)pyrimidin-4-yl]amino}-2-hydroxycyclopentyl]methyl sulfamate] | 95% | < 10 nM |  |  | 
9 | C[C@](N)(c1cccc(Cl)c1)c1csc(C(=O)c2cncnc2N[C@@H]2C[C@H](COS(N)(=O)=O)[C@@H](O)C2)c1 (single isomer, unassigned) [I-12b, [(1R,2S,4R)-4-{[5-({4-[(1S)-1-amino-1-(3-chlorophenyl)ethyl]-2-thienyl}carbonyl)pyrimidin-4-yl]amino}-2-hydroxycyclopentyl]methyl sulfamate or [(1R,2S,4R)-4-{[5-({4-[(1R)-1-amino-1-(3-chlorophenyl)ethyl]-2-thienyl}carbonyl)pyrimidin-4-yl]amino}-2-hydroxycyclopentyl]methyl sulfamate] |  |  |  | < 10 nM | 100
10 | NS(=O)(=O)OC[C@H]1C[C@@H](Nc2ncncc2C(=O)c2cc(COc3ccccc3C(F)(F)F)cs2)C[C@@H]1O [I-188, [(1R,2S,4R)-2-hydroxy-4-({5-[(4-{[2-(trifluoromethyl)phenoxy]methyl}-2-thienyl)carbonyl]pyrimidin-4-yl}amino)cyclopentyl]methyl sulfamate] |  |  | 79% | 10 to 100 nM | 
11 | Cc1sc(C(=O)c2cncnc2N[C@@H]2C[C@H](COS(N)(=O)=O)[C@@H](O)C2)cc1[C@@H]1OCCn2c(C)cnc21 (mixture of isomers) [I-296, [(1R,2S,4R)-2-hydroxy-4-{[5-({5-methyl-4-[(8S)-3-methyl-5,6-dihydro-8H-imidazo[2,1-c][1,4]oxazin-8-yl]-2-thienyl}carbonyl)pyrimidin-4-yl]amino}cyclopentyl]methyl sulfamate and [(1R,2S,4R)-2-hydroxy-4-{[5-({5-methyl-4-[(8R)-3-methyl-5,6-dihydro-8H-imidazo[2,1-c][1,4]oxazin-8-yl]-2-thienyl}carbonyl)pyrimidin-4-yl]amino}cyclopentyl]methyl sulfamate] | 98% | < 10 nM |  |  | 
12 | Cc1sc(C(=O)c2cncnc2N[C@@H]2C[C@H](COS(N)(=O)=O)[C@@H](O)C2)cc1Cn1cc(I)cn1 [I-37, [(1R,2S,4R)-2-hydroxy-4-{[5-({4-[(4-iodo-1H-pyrazol-1-yl)methyl]-5-methyl-2-thienyl}carbonyl)pyrimidin-4-yl]amino}cyclopentyl]methyl sulfamate] |  |  | 98% |  | 
13 | C#Cc1ccc2c(c1)[C@H](c1cc(C(=O)c3cncnc3N[C@@H]3C[C@H](COS(N)(=O)=O)[C@@H](O)C3)sc1C)OCC2 (single isomer, unassigned) [I-252a, [(1R,2S,4R)-4-{[5-({4-[(1R)-7-ethynyl-3,4-dihydro-1H-isochromen-1-yl]-5-methyl-2-thienyl}carbonyl)pyrimidin-4-yl]amino}-2-hydroxycyclopentyl]methyl sulfamate or [(1R,2S,4R)-4-{[5-({4-[(1S)-7-ethynyl-3,4-dihydro-1H-isochromen-1-yl]-5-methyl-2-thienyl}carbonyl)pyrimidin-4-yl]amino}-2-hydroxycyclopentyl]methyl sulfamate] |  |  |  | 10 to 100 nM | 71
14 | Cc1sc(C(=O)c2cncnc2N[C@@H]2C[C@H](COS(N)(=O)=O)[C@@H](O)C2)cc1[S@+]([O-])c1cccc(Cl)c1.Cc1sc(C(=O)c2cncnc2N[C@@H]2C[C@H](COS(N)(=O)=O)[C@@H](O)C2)cc1[S@@+]([O-])c1cccc(Cl)c1 (mixture of isomers) [I-28, [(1R,2S,4R)-4-{[5-({4-[(R)-(3-chlorophenyl)sulfinyl]-5-methyl-2-thienyl}carbonyl)pyrimidin-4-yl]amino}-2-hydroxycyclopentyl]methyl sulfamate and [(1R,2S,4R)-4-{[5-({4-[(S)-(3-chlorophenyl)sulfinyl]-5-methyl-2-thienyl}carbonyl)pyrimidin-4-yl]amino}-2-hydroxycyclopentyl]methyl sulfamate] |  |  |  | < 10 nM | 98
15 | NS(=O)(=O)OC[C@H]1C[C@@H](Nc2ncncc2C(=O)c2cc([C@@H]3NCCc4ccc(Cl)cc43)c(Cl)s2)[C@H](O)[C@@H]1O (single isomer, unassigned) [I-249b, [(1R,2R,3S,4R)-4-{[5-({5-chloro-4-[(1R)-7-chloro-1,2,3,4-tetrahydroisoquinolin-1-yl]-2-thienyl}carbonyl)pyrimidin-4-yl]amino}-2,3-dihydroxycyclopentyl]methyl sulfamate or [(1R,2R,3S,4R)-4-{[5-({5-chloro-4-[(1S)-7-chloro-1,2,3,4-tetrahydroisoquinolin-1-yl]-2-thienyl}carbonyl)pyrimidin-4-yl]amino}-2,3-dihydroxycyclopentyl]methyl sulfamate] |  |  |  | < 10 nM | 92
16 | C[C@](O)(c1csc(C(=O)c2cncnc2N[C@@H]2C[C@H](COS(N)(=O)=O)[C@@H](O)[C@H]2O)c1)c1cccc(Br)n1 (mixture of isomers) [I-1, [(1R,2R,3S,4R)-4-{[5-({4-[(1S)-1-(6-bromopyridin-2-yl)-1-hydroxyethyl]-2-thienyl}carbonyl)pyrimidin-4-yl]amino}-2,3-dihydroxycyclopentyl]methyl sulfamate and [(1R,2R,3S,4R)-4-({[5-({4-[(1R)-1-(6-bromopyridin-2-yl)-1-hydroxyethyl]-2-thienyl}carbonyl)pyrimidin-4-yl]amino}-2,3-dihydroxycyclopentyl]methyl sulfamate] |  |  |  | < 10 nM | 99
17 | Cc1sc(C(=O)c2cncnc2N[C@@H]2C[C@H](COS(N)(=O)=O)[C@@H](O)C2)cc1Cc1cccc(Cl)c1 [I-51, {(1R,2S,4R)-4-[(5-{[4-(3-chlorobenzyl)-5-methyl-2-thienyl]carbonyl}pyrimidin-4-yl)amino]-2-hydroxycyclopentyl}methyl sulfamate] |  |  | 100% | < 10 nM | 
